DC50 data for 22 compounds are collected here from patent US20250346574A1, “PYRIDINYL SUBSTITUTED OXOISOINDOLINE COMPOUNDS FOR THE TREATMENT OF CANCER” (Bristol-Myers Squibb Company, priority 2021, published 2025).

SMILES strings stand for the structures.

Helios, sequence (Q9UKS7 whole entry): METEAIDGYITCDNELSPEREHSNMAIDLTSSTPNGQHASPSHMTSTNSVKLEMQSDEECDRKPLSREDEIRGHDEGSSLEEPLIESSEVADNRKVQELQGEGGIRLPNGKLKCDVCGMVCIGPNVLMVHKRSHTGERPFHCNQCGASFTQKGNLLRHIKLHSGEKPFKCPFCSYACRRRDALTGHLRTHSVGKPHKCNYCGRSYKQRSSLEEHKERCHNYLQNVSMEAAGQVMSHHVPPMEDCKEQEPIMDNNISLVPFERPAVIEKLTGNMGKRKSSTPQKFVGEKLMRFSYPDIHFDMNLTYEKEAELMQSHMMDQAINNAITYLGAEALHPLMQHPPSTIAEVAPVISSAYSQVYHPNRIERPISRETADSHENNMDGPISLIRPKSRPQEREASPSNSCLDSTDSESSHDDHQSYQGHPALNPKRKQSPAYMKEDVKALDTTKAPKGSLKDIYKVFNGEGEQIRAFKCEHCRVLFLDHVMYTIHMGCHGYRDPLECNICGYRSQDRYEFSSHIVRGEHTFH
Helios, sequence (Q96SW2 whole entry): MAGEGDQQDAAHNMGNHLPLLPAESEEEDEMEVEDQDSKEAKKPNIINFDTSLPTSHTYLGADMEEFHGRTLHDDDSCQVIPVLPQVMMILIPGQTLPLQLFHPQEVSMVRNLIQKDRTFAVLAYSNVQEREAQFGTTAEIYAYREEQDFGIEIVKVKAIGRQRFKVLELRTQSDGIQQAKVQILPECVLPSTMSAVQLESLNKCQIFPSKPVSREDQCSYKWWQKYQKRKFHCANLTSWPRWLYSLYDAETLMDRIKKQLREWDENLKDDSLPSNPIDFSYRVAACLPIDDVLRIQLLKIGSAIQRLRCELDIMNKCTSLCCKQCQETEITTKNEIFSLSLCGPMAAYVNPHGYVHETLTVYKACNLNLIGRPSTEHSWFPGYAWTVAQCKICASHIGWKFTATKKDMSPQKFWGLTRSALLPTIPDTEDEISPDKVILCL
Helios, sequence (Q16531 whole entry partner): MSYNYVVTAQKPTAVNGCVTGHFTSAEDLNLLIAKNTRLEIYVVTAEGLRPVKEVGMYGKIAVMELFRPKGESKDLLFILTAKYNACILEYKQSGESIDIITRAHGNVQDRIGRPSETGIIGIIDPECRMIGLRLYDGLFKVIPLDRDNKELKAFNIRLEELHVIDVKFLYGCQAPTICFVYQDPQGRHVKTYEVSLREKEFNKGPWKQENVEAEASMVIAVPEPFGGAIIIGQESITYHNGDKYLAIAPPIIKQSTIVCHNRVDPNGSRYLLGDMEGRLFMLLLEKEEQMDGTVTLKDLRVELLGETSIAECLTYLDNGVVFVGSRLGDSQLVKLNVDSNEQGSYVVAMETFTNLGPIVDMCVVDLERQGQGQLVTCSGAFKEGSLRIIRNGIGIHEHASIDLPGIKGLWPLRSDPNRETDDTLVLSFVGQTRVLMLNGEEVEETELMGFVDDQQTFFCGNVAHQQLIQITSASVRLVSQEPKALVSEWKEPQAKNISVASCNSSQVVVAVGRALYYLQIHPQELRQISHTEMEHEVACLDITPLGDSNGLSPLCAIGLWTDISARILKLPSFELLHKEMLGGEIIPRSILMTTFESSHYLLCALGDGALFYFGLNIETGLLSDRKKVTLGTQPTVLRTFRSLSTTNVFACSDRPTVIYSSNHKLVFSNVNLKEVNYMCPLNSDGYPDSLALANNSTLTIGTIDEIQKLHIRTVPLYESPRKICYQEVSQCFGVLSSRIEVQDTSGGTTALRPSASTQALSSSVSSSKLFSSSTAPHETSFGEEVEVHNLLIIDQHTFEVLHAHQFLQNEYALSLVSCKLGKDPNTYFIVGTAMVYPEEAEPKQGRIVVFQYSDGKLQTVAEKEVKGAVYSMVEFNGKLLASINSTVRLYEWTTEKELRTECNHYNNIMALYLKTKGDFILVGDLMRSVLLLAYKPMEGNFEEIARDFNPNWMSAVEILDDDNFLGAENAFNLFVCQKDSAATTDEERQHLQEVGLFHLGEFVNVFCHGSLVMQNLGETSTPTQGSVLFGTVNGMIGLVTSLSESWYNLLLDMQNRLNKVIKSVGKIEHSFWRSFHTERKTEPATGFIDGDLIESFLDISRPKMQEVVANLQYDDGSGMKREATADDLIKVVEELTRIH

The target of this assay is Helios (Homo sapiens, UniProt Q96SW2+Q9UKS7). The assay is described as follows: Helios Human T Regulatory Cells Degradation Assay. The format is cell-based. On the set-up: fluorescently labelled antibodies against Helios in 1× Permeabilization buffer; endogenous in cells; host or cells: cryopreserved human T regulatory cells. Particulars: cryopreserved human T regulatory cells, incubated 20 hours, Helios-APC antibody staining, flow cytometry; read-out: hTreg Helios DC50. How it is done:
Cryopreserved human T regulatory cells were thawed in RPMI+10% FBS+20 ng/mL IL-2. After being spun at 1200 rpm for 5 mins, the cells were resuspended in RPMI+10% FBS+20 ng/mL and rested at 37° C. with 5% CO2 for 3 hours. […] Cell cultures were incubated for 20 hours at 37° C. and 5% CO2. In order to facilitate analysis, cell cultures were spun down at 1200 rpm for 5 minutes and the supernatant was discarded using an EL406 plate washer. After washing three times with 70 μL PBS, cell pellets were resuspended in 50 μL of near IR viability staining solution (Life Technologies, Cat #L34975) and incubated for 30 minutes on ice protected from light. Cells were washed three times with 70 μL PBS+0.5% BSA using an EL406 plate washer. […] Subsequently, 30 μL of 1× Permeabilization buffer was added prior to centrifuging the cells and discarding the supernatant. Stained cells were resuspended in 30 μL of flow cytometry staining buffer (PBS+0.5% BSA) and analyzed using an Intellicyt Ique Plus flow cytometer.
As for `CC1CC(O)CCN1Cc1ccnc(-c2ccc3c(c2)CN(C2CCC(=O)NC2=O)C3=O)c1F` (single isomer, unassigned) [Example 212, 3-(5-(3-fluoro-4-((4-hydroxy-2-methylpiperidin-1-yl)methyl)pyridin-2-yl)-1-oxoisoindolin-2-yl)piperidine-2,6-dione], the half-maximal degradation concentration (DC50) (in general, the concentration giving 50% degradation) turned out to be 653 nM.
For `CC(C)(C)OC(=O)[C@@H]1C[C@@H](OC(C)(C)C)CN1Cc1ccnc(-c2ccc3c(c2)CN(C2CCC(=O)NC2=O)C3=O)c1F` (single isomer, unassigned) [Example 214] the value was 3.5 nM; for `CC1(O)CC2CN(Cc3ccnc(-c4ccc5c(c4)CN(C4CCC(=O)NC4=O)C5=O)c3)CC2C1` (stereo in doubt) [Example 147, (3S)-3-(5-(4-((5-hydroxy-5-methylhexahydrocyclopenta[c]pyrrol-2(1H)-yl)methyl)pyridin-2-yl)-1-oxoisoindolin-2-yl)piperidine-2,6-dione], 11.5 nM; for `O=C1CCC(N2Cc3cc(-c4nccc(CN5CC6(CCC6)C5)c4F)ccc3C2=O)C(=O)N1` (stereo not shown) [Example 88, 3-(5-(4-((2-azaspiro[3.3]heptan-2-yl)methyl)-3-fluoropyridin-2-yl)-1-oxoisoindolin-2-yl)piperidine-2,6-dione], 3.4 nM.
Consider `CC(C)(O)C1CN(Cc2ccnc(-c3ccc4c(c3)CN(C3CCC(=O)NC3=O)C4=O)c2F)C1` (stereo not shown) [Example 89, 3-(5-(3-fluoro-4-((3-(2-hydroxypropan-2-yl)azetidin-1-yl)methyl)pyridin-2-yl)-1-oxoisoindolin-2-yl)piperidine-2,6-dione], for which the 50% degradation concentration (DC50) was found to be 18.4 nM.
Take `C[C@H]1[C@H](O)CN1Cc1ccnc(-c2ccc3c(c2)CN(C2CCC(=O)NC2=O)C3=O)c1F` (stereo partly drawn) [Example 90, 3-(5-(3-fluoro-4-(((2S,3R)-3-hydroxy-2-methylazetidin-1-yl)methyl)pyridin-2-yl)-1-oxoisoindolin-2-yl)piperidine-2,6-dione]: the DC50 came out at 454 nM.
For `O=C1CCC(N2Cc3cc(-c4nccc(CN5CCC(O)(c6ccccc6)CC5)c4F)ccc3C2=O)C(=O)N1` (stereo not shown) [Example 91, 3-(5-(3-fluoro-4-((4-hydroxy-4-phenylpiperidin-1-yl)methyl)pyridin-2-yl)-1-oxoisoindolin-2-yl)piperidine-2,6-dione], the DC50 was not below 10000 nM.
The value for `CC(C)(O)C1CCN(Cc2cc(-c3ccc4c(c3)CN(C3CCC(=O)NC3=O)C4=O)ncc2F)CC1` (stereo not shown) [Example 92, 3-(5-(5-fluoro-4-((4-(2-hydroxypropan-2-yl)piperidin-1-yl)methyl)pyridin-2-yl)-1-oxoisoindolin-2-yl)piperidine-2,6-dione] was 1.2 nM; that for `O=C1CCC(N2Cc3cc(-c4cc(CN5CC6(CCC6)C5)c(F)cn4)ccc3C2=O)C(=O)N1` (stereo not shown) [Example 93, 3-(5-(4-((2-azaspiro[3.3]heptan-2-yl)methyl)-5-fluoropyridin-2-yl)-1-oxoisoindolin-2-yl) piperidine-2,6-dione] was 1.7 nM.
Turning to `CC(C)(O)[C@H]1CCCN1Cc1ccnc(-c2ccc3c(c2)CN(C2CCC(=O)NC2=O)C3=O)c1Cl` (stereo partly drawn) [Example 96, 3-(5-(3-chloro-4-(((R)-2-(2-hydroxypropan-2-yl)pyrrolidin-1-yl)methyl)pyridin-2-yl)-1-oxoisoindolin-2-yl)piperidine-2,6-dione], the DC50 amounted to 6.6 nM.
The value for `CC(C)(O)C1CN(Cc2ccnc(-c3ccc4c(c3)CN(C3CCC(=O)NC3=O)C4=O)c2Cl)C1` (stereo not shown) [Example 97, 3-(5-(3-chloro-4-((3-(2-hydroxypropan-2-yl)azetidin-1-yl)methyl)pyridin-2-yl)-1-oxoisoindolin-2-yl) piperidine-2,6-dione] was 17.1 nM; that for `COCC1CCCN(Cc2ccnc(-c3ccc4c(c3)CN(C3CCC(=O)NC3=O)C4=O)c2)C1` (stereo not shown) [Example 99, 3-(5-(4-((3-(methoxymethyl)piperidin-1-yl)methyl)pyridin-2-yl)-1-oxoisoindolin-2-yl)piperidine-2,6-dione] was 2 nM.
On to `O=C1CCC(N2Cc3cc(-c4cc(CN5CCC6(CC5)COC6)ccn4)ccc3C2=O)C(=O)N1` (stereo not shown) [Example 100, 3-(5-(4-((2-oxa-7-azaspiro[3.5]nonan-7-yl)methyl)pyridin-2-yl)-1-oxoisoindolin-2-yl)piperidine-2,6-dione], for which the DC50 stood at 3.2 nM.
Regarding `O=C1CCC(N2Cc3cc(-c4cc(CN5C[C@@H]6C(CO)[C@@H]6C5)ccn4)ccc3C2=O)C(=O)N1` (stereo partly drawn) [Example 101, 3-(5-(4-(((1R,5S,6r)-6-(hydroxymethyl)-3-azabicyclo[3.1.0]hexan-3-yl)methyl)pyridin-2-yl)-1-oxoisoindolin-2-yl)piperidine-2,6-dione], the DC50 came out at 4.2 nM.
For `O=C1CCC(N2Cc3cc(-c4cc(CN5CC[C@@H](CO)C5)ccn4)ccc3C2=O)C(=O)N1` (stereo partly drawn) [Example 102, 3-(5-(4-(((R)-3-(hydroxymethyl)pyrrolidin-1-yl)methyl)pyridin-2-yl)-1-oxoisoindolin-2-yl)piperidine-2,6-dione] the value was 8.1 nM; for `O=C1CCC(N2Cc3cc(-c4cc(CN5Cc6cnc(Cl)cc6C5)ccn4)ccc3C2=O)C(=O)N1` (stereo not shown) [Example 103, 3-(5-(4-((6-chloro-1,3-dihydro-2H-pyrrolo[3,4-c]pyridin-2-yl)methyl)pyridin-2-yl)-1-oxoisoindolin-2-yl)piperidine-2,6-dione], 4110 nM.
The value for `CC(C)(O)[C@H]1CCN(Cc2ccnc(-c3ccc4c(c3)CN(C3CCC(=O)NC3=O)C4=O)c2)C1` (stereo partly drawn) [Example 104, 3-(5-(4-(((S)-3-(2-hydroxypropan-2-yl)pyrrolidin-1-yl)methyl)pyridin-2-yl)-1-oxoisoindolin-2-yl)piperidine-2,6-dione] was 4.2 nM; that for `O=C1CCC(N2Cc3cc(-c4cc(CN5CC[C@H](CO)C5)ccn4)ccc3C2=O)C(=O)N1` (stereo partly drawn) [Example 105, 3-(5-(4-(((S)-3-(hydroxymethyl)pyrrolidin-1-yl)methyl)pyridin-2-yl)-1-oxoisoindolin-2-yl) piperidine-2,6-dione] was 0.4 nM.
For `CC(C)(O)[C@@H]1CCN(Cc2ccnc(-c3ccc4c(c3)CN(C3CCC(=O)NC3=O)C4=O)c2)C1` (stereo partly drawn) [Example 106, 3-(5-(4-(((R)-3-(2-hydroxypropan-2-yl)pyrrolidin-1-yl)methyl)pyridin-2-yl)-1-oxoisoindolin-2-yl)piperidine-2,6-dione] the value was 6 nM; for `CC(O)C1CCN(Cc2ccnc(-c3ccc4c(c3)CN(C3CCC(=O)NC3=O)C4=O)c2)C1` (stereo not shown) [Example 107, 3-(5-(4-((3-(1-hydroxyethyl)pyrrolidin-1-yl)methyl)pyridin-2-yl)-1-oxoisoindolin-2-yl)piperidine-2,6-dione], 5.8 nM; for `CC(O)C1CCN(Cc2ccnc(-c3ccc4c(c3)CN(C3CCC(=O)NC3=O)C4=O)c2)CC1` (stereo not shown) [Example 108, 3-(5-(4-((4-(1-hydroxyethyl)piperidin-1-yl)methyl)pyridin-2-yl)-1-oxoisoindolin-2-yl)piperidine-2,6-dione], 1.4 nM.
For the compound `O=C1CCC(N2Cc3cc(-c4nccc(CN5CC[C@H](CO)C5)c4F)ccc3C2=O)C(=O)N1` (stereo partly drawn) [Example 109, 3-(5-(3-fluoro-4-(((S)-3-(hydroxymethyl)pyrrolidin-1-yl)methyl)pyridin-2-yl)-1-oxoisoindolin-2-yl)piperidine-2,6-dione], the DC50 was 21.3 nM.
